Assay results: patent US10722501B2 (BAYER AKTIENGESELLSCHAFT, priority 2016, dated 2020)

Biological target: T1, recombinant full-length human prolyl endopeptidase (PREP) (Homo sapiens, UniProt P48147)
T1 construct: To recombinant full-length human prolyl endopeptidase (PREP, R&D-Systems, 4308-SE); purchased R&D-Systems 4308-SE
T1 sequence (P48147 1-710): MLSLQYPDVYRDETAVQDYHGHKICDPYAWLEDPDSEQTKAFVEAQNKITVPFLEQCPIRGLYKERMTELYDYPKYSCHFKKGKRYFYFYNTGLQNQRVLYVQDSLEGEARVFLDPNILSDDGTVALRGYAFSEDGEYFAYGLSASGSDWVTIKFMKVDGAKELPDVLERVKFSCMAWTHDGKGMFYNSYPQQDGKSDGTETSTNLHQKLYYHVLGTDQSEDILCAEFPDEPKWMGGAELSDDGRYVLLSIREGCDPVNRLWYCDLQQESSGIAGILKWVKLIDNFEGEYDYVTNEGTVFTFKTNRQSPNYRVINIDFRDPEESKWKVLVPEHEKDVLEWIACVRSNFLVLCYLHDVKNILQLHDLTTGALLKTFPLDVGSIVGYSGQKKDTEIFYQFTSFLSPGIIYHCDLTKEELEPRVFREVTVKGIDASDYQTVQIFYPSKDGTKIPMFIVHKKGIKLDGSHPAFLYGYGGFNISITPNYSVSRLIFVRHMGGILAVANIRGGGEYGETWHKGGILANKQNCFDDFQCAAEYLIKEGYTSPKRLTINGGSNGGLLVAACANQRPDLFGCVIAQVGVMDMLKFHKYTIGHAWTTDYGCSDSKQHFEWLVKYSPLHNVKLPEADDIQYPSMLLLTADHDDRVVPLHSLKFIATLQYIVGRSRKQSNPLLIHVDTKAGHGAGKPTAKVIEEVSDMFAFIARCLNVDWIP
Assay: Biochemical human prolyl endopeptidase (PREP) assay with fluorescently labelled substrate
Details: substrate Z-Gly-Pro-AMC 50 μM, 32° C., 60 min; some as mean values from multiple independent determinations
Procedure, shortened: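 0.4 nM (final, example) recombinant PREP in pH 7.5 Tris buffer with EDTA, GSH, BSA and Brij-35; compounds at 1 nM to 30 μM. Reaction started with 50 μM Z-Gly-Pro-AMC and followed by fluorescence (ex 360/em 465 nm) at 32° C for 60 min. IC50 interpolated from percent activity based on initial slopes.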

Compound	IC50
O=C([C@@H]1CCCc2nn(CC3(c4ccc(F)cc4F)CC3)c(=O)n21)N1CCC(F)(F)C1 [Example 359, (5S)-2-{[1-(2,4-Difluorophenyl)cyclopropyl]methyl}-5-[(3,3-difluoropyrrolidin-1-yl)carbonyl]-5,6,7,8-tetrahydro[1,2,4]triazolo[4,3-a]pyridin-3(2H)-one]	1.1 nM
O=C([C@@H]1CC=Cc2nn(Cc3ccc(C(F)(F)F)nc3)c(=O)n21)N1C[C@@H](F)[C@@H](F)C1 [Example 558, (5S)-5-{[(3R,4S)-3,4-Difluoropyrrolidin-1-yl]carbonyl}-2-{[6-(trifluoromethyl)pyridin-3-yl]methyl}-5,6-dihydro[1,2,4]triazolo[4,3-a]pyridin-3(2H)-one]	1.9 nM
Cc1cccc(Cn2nc3n(c2=O)C(C(=O)N2CCCC2)CCC3)c1 (racemic) [Example 8, (5RS)-2-(3-Methylbenzyl)-5-(pyrrolidin-1-ylcarbonyl)-5,6,7,8-tetrahydro[1,2,4]triazolo[4,3-a]pyridin-3(2H)-one]	0.99 nM
O=C([C@@H]1CCCc2nn(Cc3nnc(C(F)(F)F)o3)c(=O)n21)N1C[C@@H](F)[C@@H](F)C1 [Example 543, (5S)-5-{[(3R,4S)-3,4-Difluoropyrrolidin-1-yl]carbonyl}-2-{[5-(trifluoromethyl)-1,3,4-oxadiazol-2-yl]methyl}-5,6,7,8-tetrahydro[1,2,4]triazolo[4,3-a]pyridin-3(2H)-one]	33.5 nM
COc1ccc(Cn2nc3n(c2=O)C(C(=O)N2CCC(F)(F)C2)CCC3)cc1Cl (racemic) [Example 49, (5RS)-2-(3-Chloro-4-methoxybenzyl)-5-[(3,3-difluoropyrrolidin-1-yl)carbonyl]-5,6,7,8-tetrahydro[1,2,4]triazolo[4,3-a]pyridin-3(2H)-one]	1.75 nM
Cc1ccc(Cn2nc3n(c2=O)[C@H](C(=O)N2CC(F)(F)C(F)(F)C2)CCC3)cc1 [Example 145, (5S)-2-(4-Methylbenzyl)-5-[(3,3,4,4-tetrafluoropyrrolidin-1-yl)carbonyl]-5,6,7,8-tetrahydro[1,2,4]triazolo[4,3-a]pyridin-3(2H)-one]	12.7 nM
O=C([C@@H]1CCCc2nn(Cc3nccc(C(F)(F)F)c3Cl)c(=O)n21)N1CC[C@H](O)C1 [Example 391, (5S)-2-{[3-Chloro-4-(trifluoromethyl)pyridin-2-yl]methyl}-5-{[(3S)-3-hydroxypyrrolidin-1-yl]carbonyl}-5,6,7,8-tetrahydro[1,2,4]triazolo[4,3-a]pyridin-3(2H)-one]	8.65 nM
NS(=O)(=O)c1ccc(Cn2nc3n(c2=O)C(C(=O)N2CCCC2)CCC3)cc1 (racemic) [Example 29, 4-{[(5RS)-3-Oxo-5-(pyrrolidin-1-ylcarbonyl)-5,6,7,8-tetrahydro[1,2,4]triazolo[4,3-a]pyridin-2(3H)-yl]methyl}benzenesulphonamide]	1.2 nM
O=C([C@@H]1CCCc2nn(Cc3ccc(C(F)(F)F)nc3)c(=O)n21)N1CC(O)C1 [Example 428, (5S)-5-[(3-Hydroxyazetidin-1-yl)carbonyl]-2-{[6-(trifluoromethyl)pyridin-3-yl]methyl}-5,6,7,8-tetrahydro[1,2,4]triazolo[4,3-a]pyridin-3(2H)-one]	53 nM
Cc1cc(Cn2nc3n(c2=O)C(C(=O)N2CCCC2)CCC3)ccn1 (racemic) [Example 15, (5RS)-2-[(2-Methylpyridin-4-yl)methyl]-5-(pyrrolidin-1-ylcarbonyl)-5,6,7,8-tetrahydro[1,2,4]triazolo[4,3-a]pyridin-3(2H)-one]	8.4 nM
Cc1ccc(Cn2nc3n(c2=O)[C@H](C(=O)N2CC[C@@H]2C)CCC3)cc1 [Example 148, (5S)-5-{[(2S)-2-Methylazetidin-1-yl]carbonyl}-2-(4-methylbenzyl)-5,6,7,8-tetrahydro[1,2,4]triazolo[4,3-a]pyridin-3(2H)-one]	21.3 nM
Cc1ccc(Cn2nc3n(c2=O)C(C)(C(=O)N2CCCC2)CCC3)cc1 (racemic) [Example 105, 5(RS)-5-Methyl-2-(4-methylbenzyl)-5-(pyrrolidin-1-ylcarbonyl)-5,6,7,8-tetrahydro[1,2,4]triazolo[4,3-a]pyridin-3(2H)-one]	10.5 nM
O=C(C1CCCc2nn(Cc3ncc(C(F)(F)F)cc3Cl)c(=O)n21)N1CC(O)C1 (racemic) [Example 403, (5RS)-2-{[3-Chloro-5-(trifluoromethyl)pyridin-2-yl]methyl}-5-[(3-hydroxyazetidin-1-yl)carbonyl]-5,6,7,8-tetrahydro[1,2,4]triazolo[4,3-a]pyridin-3(2H)-one]	189 nM
O=C(C1CC(C(F)(F)F)Cc2nn(Cc3cncc(Cl)c3)c(=O)n21)N1CC[C@H](F)C1 (single isomer, unassigned) [Example 317]	0.41 nM
O=C(C1CCCc2nn(Cc3ccc(F)c(Cl)c3)c(=O)n21)N1CCC(F)(F)C1 (racemic) [Example 86, (5RS)-2-(3-Chloro-4-fluorobenzyl)-5-[(3,3-difluoropyrrolidin-1-yl)carbonyl]-5,6,7,8-tetrahydro[1,2,4]triazolo[4,3-a]pyridin-3(2H)-one]	1 nM
O=C([C@@H]1CCCc2nn(Cc3ccc(F)c(Cl)c3)c(=O)n21)N1C[C@@H](F)[C@@H](F)C1 [Example 456, (5S)-2-(3-Chloro-4-fluorobenzyl)-5-{[(3R,4S)-3,4-difluoropyrrolidin-1-yl]carbonyl}-5,6,7,8-tetrahydro[1,2,4]triazolo[4,3-a]pyridin-3(2H)-one]	0.27 nM
O=C(C1CCCc2nn(Cc3ccc(C(F)(F)F)cn3)c(=O)n21)N1CCCC1 (racemic) [Example 23, (5RS)-5-(Pyrrolidin-1-ylcarbonyl)-2-{[5-(trifluoromethyl)pyridin-2-yl]methyl}-5,6,7,8-tetrahydro[1,2,4]triazolo[4,3-a]pyridin-3(2H)-one]	4.95 nM
O=C([C@@H]1CCCc2nn(Cc3ccnc(C(F)(F)F)c3F)c(=O)n21)N1CC[C@H](F)C1 [Example 484, (5S)-5-{[(3S)-3-Fluoropyrrolidin-1-yl]carbonyl}-2-{[3-fluoro-2-(trifluoromethyl)pyridin-4-yl]methyl}-5,6,7,8-tetrahydro[1,2,4]triazolo[4,3-a]pyridin-3(2H)-one]	0.295 nM
CC1CCC(C(=O)N2CC(F)C2)n2c1nn(Cc1ccc(F)cc1F)c2=O (racemic) [Example 329, (5RS,8RS)-2-(2,4-Difluorobenzyl)-5-[(3-fluoroazetidin-1-yl)carbonyl]-8-methyl-5,6,7,8-tetrahydro[1,2,4]triazolo[4,3-a]pyridin-3(2H)-one]	4.3 nM
O=C([C@@H]1CCCc2nn(CCc3ncc(C(F)(F)F)cc3Cl)c(=O)n21)N1CCC(F)(F)C1 [Example 343, (5S)-2-{2-[3-Chloro-5-(trifluoromethyl)pyridin-2-yl]ethyl}-5-[(3,3-difluoropyrrolidin-1-yl)carbonyl]-5,6,7,8-tetrahydro[1,2,4]triazolo[4,3-a]pyridin-3(2H)-one]	7.9 nM
O=C([C@@H]1CCCc2nn(Cc3cnc(C(F)(F)F)c(Cl)c3)c(=O)n21)N1C[C@@H](F)[C@@H](F)C1 [Example 440, (5S)-2-{[5-Chloro-6-(trifluoromethyl)pyridin-3-yl]methyl}-5-{[(3R,4S)-3,4-difluoropyrrolidin-1-yl]carbonyl}-5,6,7,8-tetrahydro[1,2,4]triazolo[4,3-a]pyridin-3(2H)-one]	0.715 nM
O=C([C@@H]1CCCc2nn(Cc3cccc(Br)c3)c(=O)n21)N1CC[C@H](F)C1 [Example 213, (5S)-2-(3-Bromobenzyl)-5-{[(3S)-3-fluoropyrrolidin-1-yl]carbonyl}-5,6,7,8-tetrahydro[1,2,4]triazolo[4,3-a]pyridin-3(2H)-one]	0.77 nM
Cc1ccccc1Cn1nc2n(c1=O)C(C(=O)N1CCCC1)CCC2 (racemic) [Example 58, (5RS)-2-(2-Methylbenzyl)-5-(pyrrolidin-1-ylcarbonyl)-5,6,7,8-tetrahydro[1,2,4]triazolo[4,3-a]pyridin-3(2H)-one]	4 nM
Cc1ccc(Cn2nc3n(c2=O)C(C(=O)N2CCCC2)C(C)CC3)cc1 (single isomer, unassigned) [Example 139, (5RS,6RS)-6-Methyl-2-(4-methylbenzyl)-5-(pyrrolidin-1-ylcarbonyl)-5,6,7,8-tetrahydro[1,2,4]triazolo[4,3-a]pyridin-3(2H)-one]	0.87 nM
Cc1ccc(Cn2nc3n(c2=O)C(C(=O)N2CC(C(F)(F)F)C2)CCC3)cc1 (racemic) [Example 124, (5RS)-2-(4-Methylbenzyl)-5-{[3-(trifluoromethyl)azetidin-1-yl]carbonyl}-5,6,7,8-tetrahydro[1,2,4]triazolo[4,3-a]pyridin-3(2H)-one]	14 nM
